Holding throughout (assay): growth of human tumour cells (NCI), 48 h
Experiment [1] has as its system K-562 leukemia.
Experiment [2] deals with SK-OV-3 ovarian.
Experiment [3] concerns KM12 colon.
For experiment [4], the system named is SR leukemia.
The subject of experiment [5] is A549 NSCLC.
The test system of experiment [6] is HCT-15 colon.
Experiment [7] concerns EKVX NSCLC.
Experiment [8] deals with MCF7 breast.
Experiment [9] concerns MDA-MB-231 breast.
The subject of experiment [10] is BT-549 breast.

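Test compounds were applied to cells in 96-well plates for 48 hours at 5 doses. The concentration for 50% growth inhibition is given as GI50. TGI: concentration producing complete growth inhibition.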

This is an account of results in PubChem BioAssay (NCI).

As for `COC(=O)C1(F)C(=O)NC(=O)NC1OC` (stereo not given), the TGI in [1], in experiment [2], in [3], in experiment [4], in experiment [5] and in experiment [6] was over 100 µM in each case.
As to `C[N+](C)=c1nc(N2CCOCC2)ss1`, the TGI in [1], in experiment [2], in experiment [3], in [4], in [7] and in experiment [5] was over 100 µM each time. This compound yielded a TGI in [6] of over 100 µM.
As to `NC(=O)c1c[se]c(C2OC(COP(=O)(O)CP(=O)(O)OCC3OC(n4cnc5c(N)ncnc54)C(O)C3O)C(O)C2O)n1` (stereo not given), the TGI in [1], in [2], in experiment [3], in experiment [4], in [7] and in experiment [5] was over 100 µM in each case.
Turning to `CC1(C)OC(COCCOCCCCCO)C(COCCOCCCCCO)O1` (stereo not given), the TGI in experiment [1], in experiment [2], in experiment [3], in experiment [4], in [7] and in [5] was over 100 µM each time. This compound also returned a TGI in [6] of over 100 µM.
Regarding `COC(=O)c1cc2c3c(ccc2[nH]1)N(C(=O)c1cc2c4c(ccc2[nH]1)N(C(=O)c1cc2c5c(ccc2[nH]1)N(C(N)=O)CC5)CC4)CC3`, the TGI in [1] was over 100 µM; in [2], 8.02 µM; in experiment [3], over 100 µM; in experiment [4] it was over 100 µM; in experiment [7], over 100 µM; in experiment [5], over 100 µM. In [6], this compound displayed a TGI of over 100 µM.
Take `Cc1ccccc1NC(=O)C(=O)CC(=O)c1ccc([N+](=O)[O-])cc1`: the TGI in experiment [2], in experiment [3], in [7], in experiment [5] and in experiment [6] was over 100 µM each time.
In the case of `Fc1cc(-c2nnc3n2N=C(c2ccc(Cl)cc2Cl)CS3)c(Cl)cc1Cl`, the GI50 in experiment [1] was 47.5 µM; in [8], 31.3 µM; in experiment [2], 48 µM; in [3], 41.9 µM; in [9], 33.7 µM; in [4] it was over 100 µM. For the same compound, the GI50 in [7] was 58.5 µM; in experiment [5], 58 µM; in [6], 38.3 µM. Also, the TGI in experiment [1], in [8], in experiment [2], in [3], in [9] and in experiment [4] was over 100 µM each time. Further, the TGI in experiment [7], in experiment [5] and in [6] was over 100 µM throughout.
`COc1cc2cccc(N=Cc3c(Br)ccc(OC)c3OC(C)C)c2cc1OC`: the TGI is 92.9 µM in experiment [1]; over 100 µM in experiment [2]; over 100 µM in [3]; over 100 µM in experiment [7]; over 100 µM in [5].
Regarding `O=[N+]([O-])C1C2C=CC(C2)[C@H]1c1ccc(Cl)cc1Cl` (stereo not given in full), the TGI in experiment [1], in [3], in [4], in experiment [5] and in experiment [6] was over 100 µM each time.
Consider `c1ccc(NC[Si]23OCCN(CCO2)CCO3)cc1`, for which the TGI in [1], in experiment [2], in experiment [3], in experiment [4], in experiment [7] and in experiment [5] was over 100 µM each time.
For the compound `CC(C)(C)c1cc(CCC(=O)Nc2ccc(Cl)cc2Cl)nc(N)n1`, the TGI in experiment [1], in experiment [2], in experiment [3], in [4], in experiment [7] and in experiment [5] was over 100 µM each time. Moreover, the TGI in experiment [6] is over 100 µM.
`O=C1C(c2ccccc2)=C(c2ccccc2)[C@H](c2ccccc2)[C@]1(Cc1nnn(-c2ccc([N+](=O)[O-])cc2)c1N1CCOCC1)c1ccccc1`: the TGI in [1], in experiment [2], in experiment [7], in experiment [5] and in experiment [6] was over 37.5 µM throughout.
For the compound `C=C(CNCCc1ccc(O)cc1)[C@@H]1CC[C@]2(CO)CC[C@]3(C)[C@H](CC[C@@H]4[C@@]5(C)CCC(N)C(C)(C)[C@@H]5CC[C@]43C)[C@@H]12` (stereo not given in full), the GI50 was 1.84 µM in experiment [2]; 1.48 µM in [3]; 1.11 µM in [9]; 1.7 µM in [10]; 1.66 µM in experiment [7]; 1.66 µM in experiment [5]. Further, the TGI in [2] was 3.34 µM; in experiment [3], 2.96 µM; in experiment [9], 2.38 µM; in [10], 3.53 µM; in [7] it was 3.36 µM; in experiment [5] it was 3.13 µM.
For the compound `NC(N)=N/N=C/c1c(-c2ccc(Cl)c([N+](=O)[O-])c2)nc2n1CCS2`, the GI50 in experiment [1] was 3.96 µM; in [2] it was 24.7 µM; in experiment [3], 12.4 µM; in [9] it was 2.88 µM; in [10], 21.5 µM; in [7], 12.7 µM. For the same compound, the GI50 in [5] was 16.1 µM; in [6], 23.1 µM. Besides, the TGI came to 16.6 µM in experiment [1]; 75.1 µM in experiment [2]; 25.7 µM in experiment [3]; 8.86 µM in experiment [9]; 50.2 µM in experiment [10]; 26.3 µM in experiment [7]. For the same compound, the results for the TGI in experiment [5] and in experiment [6] were 77.9 µM and 67.3 µM, respectively.
Turning to `O=C(O)[C@@H]1CCCC[C@@H]1C(=O)N(C1CCCCC1)C1CCCCC1`, the TGI in experiment [1], in [2], in experiment [3], in experiment [4], in experiment [7] and in experiment [5] was over 100 µM in each case. Further, the TGI in experiment [6] is over 100 µM.
Consider `COc1ccc(CC2=NCCc3cc(OC)c(OC)cc32)cc1Br`, for which the TGI in [1] was 93.2 µM; in experiment [2], over 100 µM; in experiment [3], 84.4 µM; in experiment [4], 91.1 µM; in [7], over 100 µM; in experiment [5], over 100 µM.
In the case of `COc1nc2c(c(O)c(C)c(=O)n2OC2OC(COC(C)=O)C(OC(C)=O)C(OC(C)=O)C2OC(C)=O)c(=O)n1C` (stereo not given), the TGI in experiment [1], in experiment [3], in experiment [4], in [7], in experiment [5] and in [6] was over 100 µM each time.
For the compound `COc1cc(O)c(C(C)=O)c(O)c1`, the TGI in experiment [1], in experiment [8], in experiment [2], in experiment [3], in [4] and in [7] was over 100 µM throughout. Moreover, the TGI in experiment [5] and in [6] was over 100 µM throughout.
`C[C@@]12CCCC(=O)N1[C@@H](CO)C(c1ccccc1)O2` (stereo not given in full): the TGI in [1], in experiment [3], in [7], in experiment [5] and in experiment [6] was over 100 µM each time.
With `CCOC(=O)C[C@@]12CCCNC1(C)CCc1ccccc12` (stereo not given in full), the TGI in experiment [1], in [2], in experiment [3], in [7], in [5] and in experiment [6] was over 100 µM each time.
Take `CC1=C(C(=O)CC(=O)C(=O)NC2C3CC4CC(C3)CC2C4)Sc2ccccc2N1` (stereo not given): the TGI was over 100 µM in experiment [1]; over 31.6 µM in experiment [2]; over 100 µM in experiment [3]; over 100 µM in experiment [7]; over 100 µM in experiment [5]; over 100 µM in experiment [6].
In the case of `COc1ccc(C2NCCc3c2[nH]c2ccccc32)cc1` (stereo not given), the TGI was over 100 µM in experiment [1]; over 100 µM in experiment [2]; over 100 µM in experiment [3]; 91.5 µM in experiment [4]; over 100 µM in experiment [7]; over 100 µM in experiment [5]. Further, the TGI in [6] is over 100 µM.
Take `CC1(C)CC(=O)c2c(oc3cc(O)c(O)cc23)C1`: the TGI was over 100 µM in experiment [1]; over 100 µM in experiment [2]; 77.4 µM in [3]; over 100 µM in experiment [4]; over 100 µM in experiment [5]; over 100 µM in [6].
Regarding `COc1ccc2[nH]c3c(=O)[nH]ncc3c2c1`, the TGI in experiment [1], in [2], in experiment [3], in [4], in experiment [7] and in experiment [5] was over 100 µM each time. In addition, the TGI in experiment [6] is over 100 µM.
Regarding `CC(=O)OCCC(O[Si](c1ccccc1)(c1ccccc1)C(C)(C)C)C(C)(C)O` (stereo not given), the TGI was over 100 µM in experiment [1]; over 100 µM in [2]; 55 µM in experiment [3]; over 100 µM in experiment [7]; over 100 µM in experiment [5]; over 100 µM in experiment [6].
On to `CC[P+]1(CC)CCCC1`, for which the TGI in experiment [1], in experiment [2], in experiment [3], in experiment [7], in experiment [5] and in [6] was over 100 µM throughout.
Consider `NS(=O)(=O)c1ccc(NC(=O)c2cccn3c(=O)c4ccccc4nc23)cc1`, for which the TGI in experiment [1], in [2], in experiment [3], in experiment [4], in [7] and in experiment [5] was over 100 µM in each case.
For the compound `C/C(=N/NC(=O)CC(=O)N(C(=O)c1ccccc1Cl)c1ccc(C)cc1)c1cc2ccccc2oc1=O`, the TGI in experiment [1], in experiment [3], in [4], in experiment [7], in [5] and in experiment [6] was over 100 µM in each case.
Consider `CCC(=O)c1cc([N+](=O)[O-])c(Br)s1`, for which the GI50 in experiment [1] is 2.16 µM; in experiment [8] it was 2.89 µM; in experiment [2], 19.4 µM; in [3], 11.6 µM; in experiment [9], 6.79 µM; in [4] it was 1.2 µM. Besides, the GI50 is 16.4 µM in [7], 5.27 µM in experiment [5] and 2.47 µM in [6]. Also, the TGI came out at 6.82 µM in experiment [1]; 12.3 µM in [8]; 33.9 µM in experiment [2]; 24.2 µM in [3]; 21.3 µM in [9]; 3.71 µM in experiment [4]. Besides, the TGI in experiment [7] was found to be 34.8 µM; in [5] it was 19.6 µM; in experiment [6], 8.21 µM.
`NC(=O)C(=O)n1ncc(Cl)c(Cl)c1=O`: the TGI was 47 µM in experiment [1]; over 100 µM in experiment [8]; over 100 µM in experiment [2]; 62.5 µM in [3]; over 49.7 µM in experiment [4]; 67.5 µM in experiment [7]. In addition, the TGI in [5] is over 100 µM; in [6], over 76.4 µM.
As to `CC(=O)[CH-]C(=O)c1ccccc1.CC(=O)[CH-]C(=O)c1ccccc1.[CH2-]CCC.[CH2-]CCC.[Sn+4]`, the GI50 is 0.331 µM in [1]; 2.27 µM in [2]; 1.41 µM in experiment [3]; 1.41 µM in experiment [7]; 1.93 µM in [5]; 1.29 µM in experiment [6]. Further, the TGI in experiment [1] was 10.3 µM; in experiment [2], 3.99 µM; in experiment [3] it was 2.76 µM; in experiment [7] it was 3.25 µM; in experiment [5], 4.13 µM; in [6], 2.87 µM.
On to `Cc1nnc(N=Nc2c(O)[nH]c3ccccc23)n1N`, for which the TGI in experiment [1], in [2], in [3], in [4], in experiment [7] and in [5] was over 100 µM in each case. The TGI in [6] is over 100 µM.
